Where “and” joins values, the source holds several entries; their conditions need not be identical. Identical values can stand only once. Entries after “also recorded” stand apart in the source; their conditions may differ.
How the values were obtained:
Format in all cases: in vivo, rat (male Sprague-Dawley)
[1] = Daily body weight of intravenously infused rats
Procedure: Water was available ad libitum at all times.
The vein was then ligated dorsally to the catheter. […] Body weights were measured daily.
(§1) Infusate volume, oral food intake, body weight and urinary volume and total nitrogen were monitored daily for each rat. Infusate volume and food intake were determined by weighing the appropriate container at the start and end of each 24 hr. period. Measurements were recorded between 9 and 10 AM each day. At the end of the 7th day, rats were sacrificed, and blood and liver were harvested. Plasma was separated for measurement of free fatty acids, glucose, and ketone bodies. Liver was weighed and a sample was fixed in buffered formalin for gross histology.
(§2) The data were analyzed for significance by the one-way analysis of variance with repeated measures and comparing the effect of dietary treatment on each day. […] The null hypothesis was concluded invalid if p≤0.05. The analysis of variance was computed on a SAS statistical package.
This compound has an estimated energy density of 4.86 kcal/gram based on thermodynamic data from similar compounds.

[2] = Liver weight after 7 days of infusion; conditions: for Liver/100 GM: as percentage of body weight
Procedure: as §1
The data were analyzed for significance by the one-way analysis of variance with repeated measures and comparing the effect of dietary treatment on each day. […] The null hypothesis was concluded invalid if p≤0.05. The analysis of variance was computed on a SAS statistical package. […]

[3] = Oral dietary nitrogen (food) intake of intravenously infused rats
[4] = Plasma free fatty acids, glucose and ketone bodies after 7 days of infusion; conditions: for T.KB: total ketone bodies
Procedure: as §1, §2

[5] = Table 5, Example 2, plasma, end of day 7, average of 7 rats
[6] = Table 5, Example 2, plasma, end of day 7, individual rat
[7] = Table 11, Example 4, plasma, average
[8] = Table 11, Example 4, plasma, individual rat

OC[C@H]1OC(O)[C@H](O)[C@@H](O)[C@@H]1O (stereo partly drawn) [Glucose, glucose, reference compound]
Daily Body Weight ([1]; Table 4, Example 2, day 6, average of 7 rats): 255 Grams
Daily Body Weight ([1]; Table 4, Example 2, day 6, individual rat): 257 Grams and 230 Grams and 274 Grams and 220 Grams and 238 Grams and 293 Grams
Daily Body Weight ([1]; Table 4, Example 2, day 7, average of 7 rats): 249 Grams
Daily Body Weight ([1]; Table 4, Example 2, day 7, individual rat): 245 Grams and 228 Grams and 251 Grams and 226 Grams and 230 Grams and 268 Grams and 297 Grams
Daily Body Weight ([1]; Table 10, Example 4, day 0, average of 9 rats): 252 Grams
Daily Body Weight ([1]; Table 10, Example 4, day 0, individual rat): 254 Grams and 288 Grams and 263 Grams and 251 Grams and 227 Grams and 260 Grams and 249 Grams and 233 Grams and 247 Grams
Daily Body Weight ([1]; Table 10, Example 4, day 1, average of 9 rats): 249 Grams
Daily Body Weight ([1]; Table 10, Example 4, day 1, individual rat): 247 Grams and 292 Grams and 256 Grams and 225 Grams and 259 Grams and 241 Grams and 227 Grams and 244 Grams
Daily Body Weight ([1]; Table 10, Example 4, day 2, average of 9 rats): 252 Grams
Daily Body Weight ([1]; Table 10, Example 4, day 2, individual rat): 261 Grams and 290 Grams and 267 Grams and 246 Grams and 224 Grams and 259 Grams and 237 Grams and 235 Grams and 245 Grams
Daily Body Weight ([1]; Table 10, Example 4, day 3, average of 9 rats): 251 Grams
Daily Body Weight ([1]; Table 10, Example 4, day 3, individual rat): 260 Grams and 292 Grams and 269 Grams and 240 Grams and 227 Grams and 264 Grams and 244 Grams and 234 Grams and 229 Grams
Daily Body Weight ([1]; Table 10, Example 4, day 4, average of 9 rats): 258 Grams
Daily Body Weight ([1]; Table 10, Example 4, day 4, individual rat): 263 Grams and 297 Grams and 273 Grams and 239 Grams and 234 Grams and 282 Grams and 248 Grams and 245 Grams
Daily Body Weight ([1]; Table 10, Example 4, day 5, average of 9 rats): 257 Grams
Daily Body Weight ([1]; Table 10, Example 4, day 5, individual rat): 268 Grams and 298 Grams and 270 Grams and 237 Grams and 239 Grams and 250 Grams and 241 Grams
Daily Body Weight ([1]; Table 10, Example 4, day 6, average of 9 rats): 263 Grams
Daily Body Weight ([1]; Table 10, Example 4, day 6, individual rat): 263 Grams and 302 Grams and 267 Grams and 241 Grams and 259 Grams and 268 Grams and 254 Grams and 245 Grams and 271 Grams
Daily Body Weight ([1]; Table 10, Example 4, day 7, average of 9 rats): 259 Grams
Daily Body Weight ([1]; Table 10, Example 4, day 7, individual rat): 264 Grams and 305 Grams and 272 Grams and 237 Grams and 247 Grams and 261 Grams and 249 Grams and 244 Grams and 255 Grams
Liver/100 GM ([2]; Table 5, Example 2, average of 7 rats): 3.220
Liver/100 GM ([2]; Table 5, Example 2, individual rat): 2.600 and 3.333 and 3.255 and 4.208 and 3.057 and 3.004 and 3.081
Liver Wt. ([2]; Table 5, Example 2, end of day 7, average of 7 rats): 7.983 Grams
Liver Wt. ([2]; Table 5, Example 2, end of day 7, individual rat): 6.37 Grams and 7.6 Grams and 8.17 Grams and 9.51 Grams and 7.03 Grams and 8.05 Grams and 9.15 Grams
Liver/100 GM ([2]; Table 11, Example 4, average): 3.636
Liver/100 GM ([2]; Table 11, Example 4, individual rat): 3.116 and 3.748 and 3.4975 and 3.789 and 4.01 and 4.617 and 3.403 and 3.377 and 3.169
Liver Wt. ([2]; Table 11, Example 4, end of day 7, average): 9.433
Liver Wt. ([2]; Table 11, Example 4, end of day 7, individual rat): 8.2264 and 11.4311 and 9.5132 and 8.9798 and 9.9056 and 12.0506 and 8.4742 and 8.2387 and 8.0815
liver weight and percentage liver weight ([2]; in words, end of day 7): similarity between glucose infused and experimental compound infused rats liver
Dietary Nitrogen Intake ([3]; Table 1, Example 2, day 1, average of 7 rats): 203 MG N
Dietary Nitrogen Intake ([3]; Table 1, Example 2, day 2, average of 7 rats): 302 MG N
Dietary Nitrogen Intake ([3]; Table 1, Example 2, day 3, average of 7 rats): 291 MG N
Dietary Nitrogen Intake ([3]; Table 1, Example 2, day 4, average of 7 rats): 322 MG N
Dietary Nitrogen Intake ([3]; Table 1, Example 2, day 5, average of 7 rats): 290 MG N
Dietary Nitrogen Intake ([3]; Table 1, Example 2, day 7, average of 7 rats): 354 MG N
Dietary Nitrogen Intake ([3]; Table 7, Example 4, oral only, day 1, average of 9 rats): 279 MG N
Dietary Nitrogen Intake ([3]; Table 7, Example 4, oral only, day 1, individual rat): 500.08 MG N and 388.22 MG N and 164.5 MG N and 151.34 MG N and 78.96 MG N and 421.12 MG N and 329 MG N and 98.7 MG N and 375.06 MG N
Dietary Nitrogen Intake ([3]; Table 7, Example 4, oral only, day 2, average of 9 rats): 369 MG N
Dietary Nitrogen Intake ([3]; Table 7, Example 4, oral only, day 2, individual rat): 519.82 MG N and 513.24 MG N and 500.08 MG N and 98.7 MG N and 269.78 MG N and 434.28 MG N and 342.16 MG N and 243.46 MG N and 401.38 MG N
Dietary Nitrogen Intake ([3]; Table 7, Example 4, oral only, day 3, average of 9 rats): 323 MG N
Dietary Nitrogen Intake ([3]; Table 7, Example 4, oral only, day 3, individual rat): 355.32 MG N and 388.22 MG N and 394.8 MG N and 151.34 MG N and 467.18 MG N and 407.96 MG N and 197.4 MG N
Dietary Nitrogen Intake ([3]; Table 7, Example 4, oral only, day 4, average of 9 rats): 372 MG N
Dietary Nitrogen Intake ([3]; Table 7, Example 4, oral only, day 4, individual rat): 506.66 MG N and 401.38 MG N and 342.16 MG N and 427.7 MG N and 85.54 MG N and 282.94 MG N and 480.34 MG N and 486.92 MG N and 335.58 MG N
Dietary Nitrogen Intake ([3]; Table 7, Example 4, oral only, day 5, average of 9 rats): 379 MG N
Dietary Nitrogen Intake ([3]; Table 7, Example 4, oral only, day 5, individual rat): 493.5 MG N and 421.12 MG N and 368.48 MG N and 335.58 MG N and 0 MG N and 427.7 MG N and 454.02 MG N
Dietary Nitrogen Intake ([3]; Table 7, Example 4, oral only, day 6, average of 9 rats): 382 MG N
Dietary Nitrogen Intake ([3]; Table 7, Example 4, oral only, day 6, individual rat): 500.08 MG N and 454.02 MG N and 375.06 MG N and 329 MG N and 0 MG N and 394.8 MG N and 421.12 MG N and 447.44 MG N and 519.82 MG N
Dietary Nitrogen Intake ([3]; Table 7, Example 4, oral only, day 7, average of 9 rats): 381 MG N
Dietary Nitrogen Intake ([3]; Table 7, Example 4, oral only, day 7, individual rat): 421.12 MG N and 414.54 MG N and 355.32 MG N and 32.9 MG N and 401.38 MG N and 473.76 MG N and 407.96 MG N and 500.08 MG N
ACAC [4, 5]: 0.088 mmol/L
BOHB [4, 5]: 0.505 mmol/L
FFa [4, 5]: 0.564 mmol/L
Glucose [4, 5]: 185.423 mg/dL
ACAC [4, 6]: 0.020 mmol/L and 0.066 mmol/L and 0.194 mmol/L and 0.096 mmol/L and 0.017 mmol/L and 0.031 mmol/L
BOHB [4, 6]: 0.385 mmol/L and 0.476 mmol/L and 0.533 mmol/L and 0.332 mmol/L and 0.358 mmol/L and 1.086 mmol/L and 0.363 mmol/L
FFa [4, 6]: 0.337 mmol/L and 0.976 mmol/L and 0.850 mmol/L and 0.816 mmol/L and 0.168 mmol/L and 0.483 mmol/L and 0.316 mmol/L
Glucose [4, 6]: 196.840 mg/dL and 161.300 mg/dL and 162.620 mg/dL and 164.800 mg/dL and 237.100 mg/dL and 228.500 mg/dL
T.KB [4, 5]: 0.593 mmol/L
T.KB [4, 6]: 0.405 mmol/L and 0.542 mmol/L and 0.727 mmol/L and 0.427 mmol/L and 0.375 mmol/L and 1.280 mmol/L and 0.394 mmol/L
ACAC [4, 7]: 0.029 mmol/L
BOHB [4, 7]: 0.512 mmol/L
Glucose [4, 7]: 214.433 mg/dL
Total FFA [4, 7]: 0.341 mmol/L
ACAC [4, 8]: 0.0085 mmol/L and 0.1195 mmol/L and 0.0177 mmol/L and 0.0095 mmol/L and 0.0038 mmol/L and 0.0145 mmol/L
BOHB [4, 8]: 0.5282 mmol/L and 0.5088 mmol/L and 0.5936 mmol/L and 0.2075 mmol/L and 0.6958 mmol/L and 0.6475 mmol/L and 0.3727 mmol/L and 0.4066 mmol/L and 0.651 mmol/L
Glucose [4, 8]: 263.3 mg/dL and 203.5 mg/dL and 429.3 mg/dL and 208 mg/dL and 284.8 mg/dL and 163.5 mg/dL and 124.9 mg/dL and 116.6 mg/dL
Total FFA [4, 8]: 0.327 mmol/L and 0.231 mmol/L and 0.462 mmol/L and 0.434 mmol/L and 0.525 mmol/L and 0.303 mmol/L and 0.206 mmol/L and 0.395 mmol/L and 0.19 mmol/L
blood / plasma glucose ([4]; in words, end of day 7): significantly elevatea plasma glucose; also recorded: higher for glucose infused rats than for the other two groups
free fatty acid concentration ([4]; in words, plasma, end of day 7): not different for the three groups

Reference: patent publication US5420335A, “Parenteral nutrients based on watersoluble glycerol bisacetoacetates” (priority 1993, dated 1995)
